Reference: PubChem BioAssay AID651630 (Sanford-Burnham Center for Chemical Genomics, 2012)
Active and inactive are the calls of the source.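 The calls were made as follows: active = lipid-stain IC50 at or below a set limit, with nuclear-stain toxicity IC50 at least five times higher; inactive = the rest.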

Key:
DAPI = test: TAG lipid buildup inhibition with viability readout – cell-based, panel, Nile Red and DAPI fluorescence, H9c2, dose response (AID 651630); settings: H9c2 cells, DAPI nuclear fluorescence (cytotoxicity counter-readout), oleic acid;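 also: cells exposed to compound overnight before fixation and staining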
TAG = test: as above; settings: H9c2 cells, Nile Red TAG fluorescence, oleic acid

| SMILES | IC50 cytotoxicity (DAPI nuclear signal decrease) (DAPI; mean of runs) | IC50 cytotoxicity (DAPI nuclear signal decrease) (DAPI; run 1) | IC50 cytotoxicity (DAPI nuclear signal decrease) (DAPI; run 2) | IC50 (TAG; run 1) | IC50 (TAG; run 2) | IC50 (TAG; mean of runs) |
| --- | --- | --- | --- | --- | --- | --- |
| O[C@H]1CN(CC2CCCCC2)[C@@H](c2ccc(Cl)cc2)C[C@@H]1n1cc(-c2ccc(F)cc2)nn1 | > 25 µM (inactive) | > 25 µM | > 25 µM | 18.5 µM | > 25 µM |  |
| COc1ccc(NS(=O)(=O)c2cc(C)ccc2NC(=O)c2cc(C)oc2C)cc1 | > 25 µM (inactive) | > 25 µM | > 25 µM | 9.83 µM | 7.35 µM | 8.59 µM |
| CCCCNc1c(-c2ccc(-c3ccc(C(C)=O)cc3)c(OC)c2)nc2cc(C)ccn12 | > 25 µM (inactive) | > 25 µM | > 25 µM | > 25 µM | 22.5 µM |  |
| CCC(=NCCc1c(C)[nH]c2ccc(OC(F)(F)F)cc12)C1=C(O)CC(c2ccccc2)CC1=O (stereo not drawn) | > 25 µM (inactive) | > 25 µM | > 25 µM | > 25 µM | > 25 µM | > 25 µM (inactive) |
| Cc1ccc(NC(=O)c2nc[nH]c2C(=O)NCCCCNC(=O)c2[nH]cnc2C(=O)Nc2ccc(C)cc2)cc1 | > 25 µM (inactive) | > 25 µM | > 25 µM | 6.27 µM | 4.66 µM | 5.46 µM |
| O=C(Nc1ccccc1)c1nc[nH]c1C(=O)NCCCCCCNC(=O)c1[nH]cnc1C(=O)Nc1ccccc1 | > 25 µM (inactive) | > 25 µM | > 25 µM | 24.9 µM | > 25 µM |  |
| CCCCC(CC)C(=O)Nc1cc(C(=O)NCc2ccc(C)cc2)ccc1N1CCC2(CC1)CC(c1ccccc1)=NO2 (stereo not drawn) |  | > 25 µM | > 25 µM | 3.44 µM | 3.5 µM | 3.47 µM |
| CC(C)(C)c1cc(NCc2ccccn2)n2ncc(-c3ccc(Cl)cc3)c2n1 | > 25 µM (inactive) | > 25 µM | > 25 µM | > 25 µM | > 25 µM | > 25 µM (inactive) |
| COc1ccc(CC(=O)Nc2ccc(-c3nnc(-c4ccc(C)cc4)o3)cc2)cc1 | > 25 µM (inactive) | > 25 µM | > 25 µM | > 25 µM | > 25 µM | > 25 µM (inactive) |
| COC(=O)[C@@]1(Cc2ccc(F)cc2)[C@H]2c3cc(C(=O)N4CCCC4)n(CCCNc4ncc(C(F)(F)F)cc4Cl)c3C[C@H]2CN1C(=O)c1ccccc1 |  | > 25 µM | > 25 µM | 2.76 µM | 2.41 µM | 2.58 µM |
| COc1ccc(-c2cc(NC=O)c3ncc(-c4cc(OC)c(OC)c(OC)c4)n3c2)c(OC)c1 | > 25 µM (inactive) | > 25 µM | > 25 µM | > 25 µM | > 25 µM | > 25 µM (inactive) |
| O=C(CCC1CCCCC1)NCCN1C2=NC[C@@H](Cc3ccccc3)N2C[C@H]1Cc1ccc(O)cc1 | > 25 µM (inactive) | > 25 µM | > 25 µM | > 25 µM | > 25 µM | > 25 µM (inactive) |
| Cc1noc(C)c1CSc1nc2[nH]ncc2c(=O)n1-c1ccccc1 |  | > 25 µM | > 25 µM | 3.41 µM | 5.41 µM | 4.41 µM |
| C=CCC[C@@H](Cc1ccc(F)cc1)C(=O)OC[C@@H](Cc1c[nH]c2ccccc12)NC(=O)[C@@H](CC=C)CC(=O)N(CCO)Cc1ccccc1 | > 25 µM (inactive) | > 25 µM | > 25 µM | 7.1 µM | 9.42 µM | 8.26 µM |
| CN(C)c1ccc(NC(=O)CSc2nc3ccccc3c(=O)n2C2CCCCC2)cc1 | > 25 µM (inactive) | > 25 µM | > 25 µM | > 25 µM | 20 µM |  |
| CO/N=C\CC(=O)Nc1ccc(Oc2ccccc2)cc1 | > 25 µM (inactive) | > 25 µM | > 25 µM | 9.14 µM | 6.8 µM | 7.97 µM |
| COc1cc(-c2nnc3n2N=C(c2ccccc2)CS3)cc(OC)c1OC | > 25 µM (inactive) | > 25 µM | > 25 µM | 14.9 µM | 12 µM | 13.4 µM |

| SMILES | IC50 cytotoxicity (DAPI nuclear signal decrease) (DAPI; mean of runs) | IC50 cytotoxicity (DAPI nuclear signal decrease) (DAPI; run 1) | IC50 cytotoxicity (DAPI nuclear signal decrease) (DAPI; run 2) | IC50 (TAG; run 1) | IC50 (TAG; run 2) | IC50 (TAG; mean of runs) |
| --- | --- | --- | --- | --- | --- | --- |
| Cc1ccc(-c2nn(-c3ccccc3)cc2CSC(=N)N)cc1 | 21 µM | 21.1 µM | 20.9 µM | 3.92 µM | 3.73 µM | 3.82 µM |
| CC1(C(=O)NCc2ccco2)Cc2c(-c3cccc(C(F)(F)F)c3)ccnc2O1 (stereo not drawn) | > 25 µM (inactive) | > 25 µM | > 25 µM | > 25 µM | > 25 µM | > 25 µM (inactive) |
| CCN(CC)CCn1c(SCC(=O)Nc2cccc(OC)c2)nc2c(sc3ccccc32)c1=O | > 25 µM (inactive) | > 25 µM | > 25 µM | 16.7 µM | 10.6 µM | 13.7 µM |
| CCOC(=O)N1CCN(C(=O)c2ccccc2N(Cc2ccccc2)S(=O)(=O)c2ccc(OC)cc2)CC1 | > 25 µM (inactive) | > 25 µM | > 25 µM | 24.3 µM | 15.5 µM | 19.9 µM (inactive) |
| CCOc1ccc(CN(C)C(=O)CCl)cc1 | > 25 µM (inactive) | > 25 µM | > 25 µM | > 25 µM | 22.6 µM |  |
| Cc1cccc2cc(C#N)c(SCC(=O)NNC(=O)Cc3ccccc3)nc12 | > 25 µM (inactive) | > 25 µM | > 25 µM | > 25 µM | > 25 µM | > 25 µM (inactive) |
| CCCCCCSc1cc(-c2nc3ccc(Cl)cn3c2NC2CCCCC2)ccc1OC | > 25 µM (inactive) | > 25 µM | > 25 µM | 20.4 µM | 24.7 µM | 22.6 µM (inactive) |
| O=C1c2ccccc2C(=O)c2c1cccc2N1CCN(C/C=C/c2ccccc2)CC1 | > 25 µM (inactive) | > 25 µM | > 25 µM | 23.1 µM | > 25 µM |  |
| CCOc1cc(C(=O)N/N=C/c2cn(-c3ccccc3)nc2-c2cc3ccccc3o2)cc(OCC)c1OCC | > 25 µM (inactive) | > 25 µM | > 25 µM | 9.28 µM | 11.2 µM | 10.2 µM |
| COc1cc(C)c2sc3ccccc3c(=O)c2c1NCCN(C)C | > 25 µM (inactive) | > 25 µM | > 25 µM | 7.48 µM | 10.9 µM | 9.19 µM |
| COc1ccc(-c2cnnc(N/N=C/c3ccc(-c4ccc([N+](=O)[O-])cc4)o3)n2)cc1 | > 25 µM (inactive) | > 25 µM | > 25 µM | 11.6 µM | 10.4 µM | 11 µM |
| C=CCC[C@@H](Cc1ccc(F)cc1)C(=O)OC[C@H](Cc1c[nH]c2ccccc12)NC(=O)[C@@H](CC=C)CC(=O)N(CCO)Cc1ccccc1 | > 25 µM (inactive) | > 25 µM | > 25 µM | 10.7 µM | 15.4 µM | 13.1 µM |
| Cc1cccc2c(C(=O)N3CCN(c4ccccc4)CC3)cc(-c3ccncc3)nc12 | > 25 µM (inactive) | > 25 µM | > 25 µM | 7.82 µM | 8.31 µM | 8.06 µM |
| CCOc1ccc(NC(=O)c2ccc(NC(=O)CSc3nc4ccccc4c(=O)[nH]3)cc2)cc1 | > 25 µM (inactive) | > 25 µM | > 25 µM | 24.6 µM | > 25 µM |  |
| CN(C)CCNC(=O)c1cccc2ccc(-c3ccc(-c4ccccc4)cc3)nc12 | > 25 µM (inactive) | > 25 µM | > 25 µM | 10.6 µM | 14.4 µM | 12.5 µM |
| COc1ccc(CC(=O)Nc2ccc(-c3ccc4nnc(C)n4n3)cc2)cc1OC | > 25 µM (inactive) | > 25 µM | > 25 µM | 15.2 µM | 17.8 µM | 16.5 µM (inactive) |
| Cc1ccc(NC(=O)CSc2nc3ccc(Nc4nc(N5CCOCC5)nc(N5CCOCC5)n4)cc3s2)cc1 |  | > 25 µM | > 25 µM | 4.85 µM | 2.76 µM | 3.8 µM |
